Consider three compounds from patent US9340543B2, “Helquat derivatives, preparation thereof, and use thereof as medicaments” (USTAV ORGANICKE CHEMIE A BIOCHEMIE AKADEMIE VED CR, V.V.I., priority 2013, dated 2016).

What all share (type): cell-based
In assay [1] the test system is Hep G2. As to the kind of experiment: CellTiter-Glo luminescent cell viability assay (ATP quantification), Hep G2. Particulars: hepatocellular carcinoma cells, 72 h treatment, viable cells by ATP luminescence. The method, then:
(§1) Influence of the test compounds on viability (proliferation) of cell lines used was investigated in concentration range 0-100 μmol·l^−1.
Adherent cell line Hep G2 is a permanent in vitro culture derived from liver tissue of a patient with hepatocellular carcinoma. Hep G2 cell line was cultivated in DMEM medium (Sigma-Aldrich, cat. no. M4528) with addition of 2 mmol·l^−1 glutamine (Invitrogen, see above), 10% fetal bovine serum (FBS, Sigma-Aldrich, see above), 100 IU/ml peniciline, 100 μg/ml streptomycine (Sigma-Aldrich, see above). Passaging was performed twice a week. After washing of cells with sterile PBS, the cells were released by 0.25% trypsin/EDTA (Sigma-Aldrich, see above) at 37° C. for 2 minutes. The trypsin was inactivated by addition of 2 volumes of complete medium, cells were then centrifuged (250×g, 5 min), resuspended, and transferred in the amount needed into a new cultivation bottle with fresh medium. Population doubling time of Hep G2 cell line was 28 h under the cultivation conditions used.
(§2) In order to test the sensitivity of the cell lines towards the studied helquats, cytotoxity test for cell viability assessment based on ATP quantification in cell lysates was used (CellTiter-Glo® Luminescent Cell Viability Assay, Promega, cat. no. G7571). In this test, ATP in cell lysates is detected using luciferase reaction. Luminescence intensity correlates with the ATP level and thus with quantity of metabolically active (viable) cells. IC50 value serves as the output, that is the concentration of the test compound which leads to 50% reduction in number of viable cells as compared to control, untreated population. To this end, IC50 value reflects efficiency of the test compound with regard to the given cell line.
Cells in the exponential growth phase were seeded into a 96-well microtiter plate were plated at 3000 cells per well. Each well contained 90 μl of cell suspension. The next day, 10 μl of 10× concentrated test compound solutions were added. The effect of helquats was investigated in concentration range 1 to 100 μmol·l^−1 (e.g. 1; 2.5; 5; 7.5; 10; 15; 25; 50 and 100 μmol·l^−1). Apart from the section containing the concentration series of the test compound, each well contained 2 control columns, the first with pure medium (so called blank) and the second with cells in medium without the test compounds (control). Into wells containing controls and blanks, volume of solvent (water) equal to the volume of added compound solutions was added. After 72 h of incubation with the test compounds viability was determined according to the manufacturer's instructions. […] Next, after the well had been left in the dark for 15 min, the luminescence was measured in each well using luminometer (Tecan Genios, Austria). […]

Assay [2] relates to HeLa. As to the kind of experiment: CellTiter-Glo luminescent cell viability assay (ATP quantification), HeLa. The following applies: cervical cancer cells, 72 h treatment, viable cells by ATP luminescence. The procedure: as §1
Adherent cell line HeLa is a permanent in vitro culture derived from cervical cancer. HeLa cell line was cultivated in RPMI 1640 medium (Dutch modification) (Sigma-Aldrich, cat. no. R7638) with addition of 2 mmol·l^−1 glutamine (Invitrogen, see above), 10% fetal bovine serum (FBS, Sigma-Aldrich, see above), 100 IU/ml peniciline, 100 μg/ml streptomycine (Sigma-Aldrich, see above). Passaging was performed twice a week. After washing of cells with sterile PBS the cells were released by 0.25% trypsin/EDTA (Sigma-Aldrich, cat. no. T4049) at 37° C. for 2 minutes. The trypsin was inactivated by addition of 2 volumes of complete medium, cells were then centrifuged (250×g, 5 min), the cell pellet was resuspended, and transferred in the amount needed into a new cultivation bottle with fresh medium. Population doubling time of […] cell line was 25 h under the cultivation conditions used.
as §2
(§3) Cells in the exponential growth phase were seeded into a 96-well microtiter plate were plated at 3000 cells per well. Each well contained 90 μl of cell suspension. The next day, 10 μl of 10× concentrated test compound solutions were added. The effect of helquats was investigated in concentration range 1 to 100 μmol·l^−1 (e.g. 1; 2.5; 5; 7.5; 10; 15; 25; 50 and 100 μmol·l^−1). Apart from the section containing the concentration series of the test compound, each well contained 2 control columns, the first with pure medium (so called blank) and the second with cells in medium without the test compounds (control). Into wells containing controls and blanks, volume of solvent (water) equal to the volume of added compound solutions was added. After 72 h of incubation with the test compounds viability was determined according to the manufacturer's instructions. In short: microtiter well plate was left 30 min to reach the room temperature after it has been removed from the incubator. Then, into each well, 100 μl of the prepared detection agent was added. Next, the well plate was shaken for 2 min to complete the full lysis. Next, after the well had been left in the dark for 15 min, the luminescence was measured in each well using luminometer (Tecan Genios, Austria).
(§4) IC50 value represents concentration of the test compound, which leads to 50% reduction of viable cells (inhibition of cell growth) after 72 h of the treatment. Each helquat concentration was tested in triplicates in a IC50 quantification and at least 3 independent IC50 quantification experiments were performed. IC50 values over 100 μmol·l^−1 were obtained by extrapolation of data measured in concentration range 0-100 μmol·l^−1 for the given helquat.
(Cellular ATP, detected with luciferase, serves as a proxy for viable cell number.)

In assay [3] the test system is MOLT-4. As to the kind of experiment: CellTiter-Glo luminescent cell viability assay (ATP quantification), MOLT-4. The following applies: acute lymfoblastic leukemia cells, 72 h treatment, viable cells by ATP luminescence. The method, then: as §1
Suspension cell line MOLT-4 is a permanent in vitro culture of acute lymfoblastic leukemia. Linie MOLT-4 cell line was cultivated in RPMI 1640 medium (Sigma-Aldrich, see above) with addition of 2 mmol glutamine (Invitrogen, see above), 10% fetal bovine serum (FBS, Sigma-Aldrich, see above), 100 IU/ml peniciline, 100 μg/ml streptomycine (Sigma-Aldrich, see above). Passaging was performed 2-3× a week. Population doubling time of […] cell line was 25 h under the cultivation conditions used.
as §2, §3, §4

The test system of assay [4] is CCRF-CEM. As to the kind of experiment: CellTiter-Glo luminescent cell viability assay (ATP quantification), CCRF-CEM. Particulars: acute lymphoblastic leukemia cells, 72 h treatment, viable cells by ATP luminescence. The procedure: as §1
Suspension cell line CCRF-CEM is a permanent in vitro culture of acute lymphoblastic leukemia. CCRF-CEM cell line was cultivated in RPMI 1640 medium (Sigma-Aldrich, cat. no. R8758) with addition of 2 mmol·l^−1 glutamine (Invitrogen, cat. no. 35050-038), 10% fetal bovine serum (FBS, Sigma-Aldrich, cat. no. F9665), 100 IU/ml peniciline, 100 μg/ml streptomycine (Sigma-Aldrich, cat. no. P0781). Passaging was performed 2-3× a week. Population doubling time of CCRF-CEM cell line was 20 h under the cultivation conditions used.
as §2, §3, §4

Assay [5] deals with NHDF-Ad. As to the kind of experiment: CellTiter-Glo luminescent cell viability assay (ATP quantification), NHDF-Ad normal cells. The following applies: normal human dermal fibroblasts, 72 h treatment.
Description: as §1
Normal human dermal fibroblasts were cultivated without antibiotics in basal medium for fibroblasts (ATCC/LGC Standards, cat. no. PCS-201-030) with added “Fibroblast Growth Kit-Low serum” (ATCC/LGC Standards, cat. no. PCS-201-041) containing 2% FBS, L-glutamine, hydrocortisone, ascorbic acid, rh FGF beta, rh insulin. When 90% confluency was reached the fibroblasts were washed with sterile PBS (5 ml) and dissociated by addition of 0.25% solution of trypsin/EDTA (2 ml; 2 min; 37° C.). After that 5 ml of cultivation medium for fibroblasts was added and the cells were centrifuged (180×g, 7 min), the cell pellet was resuspended, and transferred in the amount needed into a new cultivation bottle with fresh medium. The same cell release procedure was applied when the cells were to be used in experiments. The cells were used in experiments between the 3rd and the 15th passage after defreeezing. Population doubling time of NHDF-Ad cell line was 33 h under the cultivation conditions used.
as §2, §3, §4

[6] abbreviates: viable cells by ATP luminescence, class symbols.

Like-named read-outs stand apart in the source and are kept apart here.

Usually IC50 stands for the midpoint of a concentration-inhibition curve. For `Cc1c(C)c2c(c3c1CC[n+]1ccc(/C=C/c4ccc(N(C)C)cc4)cc1-3)-c1c3ccccc3cc[n+]1CC2` [(M)-1, (M)-(E)-13-(4-(dimethylamino)styryl)-6,7-dimethyl-4,5,8,9-tetrahydroiso-quinolino[1,2-a]pyrido[1,2-k][2,9]phenanthroline-3,10-diium trifluoromethanesulfonate], the IC50 in assay [1] (read-out: IC50 HepG2) was 11 to 50 µM; in assay [2] it was less than 10 µM; in assay [3], less than 10 µM; in assay [4], less than 10 µM; in assay [5] (setting [6]), 51 to 150 µM.

As to `COc1ccc2cc(/C=C/c3cc[n+]4c(c3)-c3c(c(C)c(C)c5c3-c3c6ccccc6cc[n+]3CC5)CC4)ccc2c1` [(M)-7, (M)-(E)-13-(2-(6-methoxynaphthalene-2-yl)vinyl)-6,7-dimethyl-4,5,8,9-tetrahydroisoquinolino[1,2-a]pyrido[1,2-k][2,9]phenanthroline-3,10-diium trifluoromethanesulfonate], the IC50 in assay [1] (read-out: IC50 HepG2) is 11 to 50 µM; in assay [2] it was less than 10 µM; in assay [3], less than 10 µM; in assay [4] it was less than 10 µM; in assay [5] (setting [6]), 51 to 150 µM.

As to `COc1ccc(/C=C/c2cc[n+]3c(c2)-c2c(c(C)c(C)c4c2-c2c5ccccc5cc[n+]2CC4)CC3)cc1` [(M)-6, (M)-(E)-13-(4-methoxystyryl)-6,7-dimethyl-4,5,8,9-tetrahydroisoquinolino[1,2-a]pyrido[1,2-k][2,9]phenanthroline-3,10-diium trifluoromethanesulfonate], the IC50 is 11 to 50 µM in assay [1] (Homo sapiens, HepG2); 11 to 50 µM in assay [2] (Homo sapiens, HeLa); 11 to 50 µM in assay [3] (Homo sapiens, MOLT-4); 11 to 50 µM in assay [4] (Homo sapiens, CCRF-CEM); greater than 150 µM in assay [5] (Fibroblast, numeric bound, values over 100 obtained by extrapolation of data measured at 0-100 μmol·l−1).
